{"source": "patent US20230212163A1", "about": "“2-(HET)ARYL-SUBSTITUTED CONDENSED HETEROCYCLIC DERIVATIVES AS PEST CONTROL AGENTS” (Bayer Aktiengesellschaft, priority 2020, published 2023)", "assay_type_in_all_cases": "in vivo", "key": {"Myzus persicae [1]": {"tested_on": "Myzus persicae", "assay": "Myzus persicae oral test", "settings": "120 h, application rate 4 ppm, after 5 days, read-out: efficacy", "description": "[table] To produce a suitable active compound formulation, 1 part by weight of active compound is dissolved using the specified parts by weight of solvent and made up with water until the desired concentration is attained. 50 μl of the active compound formulation are transferred into microtitre plates and made up to a final volume of 200 μl with 150 μl of IPL41 insect medium (33%+15% sugar). Subsequently, the plates are sealed with parafilm, which a mixed population of green peach aphids (Myzus persicae) within a second microtitre plate is able to puncture and imbibe the solution through. After 5 days, the efficacy in % is determined. 100% means that all the aphids have been killed; 0% means that no aphids have been killed."}, "Myzus persicae [2]": {"tested_on": "Myzus persicae", "assay": "Myzus persicae spray test", "settings": "application rate 100 g/ha, after 5 days", "description": "(§1) [table] To produce a suitable active compound formulation, 1 part by weight of active compound is dissolved using the stated parts by weight of solvent and made up with water containing an emulsifier concentration of 1000 ppm until the desired concentration is attained. To produce further test concentrations, the formulation is diluted with emulsifier-containing water. Discs of Chinese cabbage leaves (Brassica pekinensis) infested by all stages of the green peach aphid (Myzus persicae) are sprayed with an active compound formulation of the desired concentration. After 5 days, the efficacy in % is determined. 100% means that all the aphids have been killed; 0% means that no aphids have been killed."}, "Phaedon cochleariae": {"tested_on": "Phaedon cochleariae", "assay": "Phaedon cochleariae spray test", "settings": "application rate 100 g/ha, after 7 days", "description": "as §1, with “pekinensis)” for “pekinensis) infested by all stages of the green peach aphid (Myzus persicae)”, “concentration and, after drying, populated with larvae of the mustard beetle (Phaedon cochleariae).” for “concentration.”, “7” for “5”, “beetle larvae” for “aphids”"}, "Spodoptera frugiperda [3]": {"tested_on": "Spodoptera frugiperda", "assay": "Spodoptera frugiperda spray test (maize leaf discs)", "settings": "Spodoptera frugiperda, foliar, 168 h, application rate 100 g/ha, after 7 days", "description": "[table] To produce a suitable active compound formulation, 1 part by weight of active compound is dissolved using the stated parts by weight of solvent and made up with water containing an emulsifier concentration of 1000 ppm until the desired concentration is attained. To produce further test concentrations, the formulation is diluted with emulsifier-containing water. Leaf discs of maize (Zea mays) are sprayed with an active compound formulation of the desired concentration and, after drying, populated with caterpillars of the fall armyworm (Spodoptera frugiperda). After 7 days, the efficacy in % is determined. 100% means that all the caterpillars have been killed; 0% means that no caterpillar has been killed."}, "Heliothis armigera": {"tested_on": "Heliothis armigera", "assay": "Heliothis armigera spray test (HELIAR), comparative", "settings": "Helicoverpa armigera, 168 h, 4 ppm, 7 dat, read-out: % efficacy", "description": "(§2) [table] To produce a suitable active compound formulation, 1 part by weight of active compound is dissolved using the stated parts by weight of solvent and made up with water containing an emulsifier concentration of 1000 ppm until the desired concentration is attained. To produce further test concentrations, the formulation is diluted with emulsifier-containing water. If the addition of ammonium salts or/and penetrants is required, these are each added in a concentration of 1000 ppm to the formulation solution. Cotton plants (Gossypium hirsutum) are sprayed with an active compound formulation of the desired concentration and, after drying, populated with caterpillars of the cotton bollworm (Heliothis armigera). After the desired time, the kill in % is determined. 100% means that all caterpillars have been killed; 0% means that none of the caterpillars have been killed."}, "Plutella xylostella": {"tested_on": "Plutella xylostella", "assay": "Plutella xylostella spray test (PLUTMA), comparative", "settings": "168 h, 4 ppm, 7 dat, read-out: % efficacy", "description": "as §2, with “solution. Cabbage leaves (Brassica oleracea)” for “solution. Cotton plants (Gossypium hirsutum)”, “concentration and infected” for “concentration and, after drying, populated”, “with larvae” for “with caterpillars”, “the diamondback moth (Plutella xylostella).” for “the cotton bollworm (Heliothis armigera).”"}, "Spodoptera frugiperda [4]": {"tested_on": "Spodoptera frugiperda", "assay": "Spodoptera frugiperda spray test (SPODFR, cotton leaves), comparative", "settings": "168 h, 7 dat, read-out: % efficacy", "description": "as §2, with “leaves” for “plants”, “and” for “and, after drying,”, “armyworm (Spodoptera frugiperda).” for “cotton bollworm (Heliothis armigera).”"}, "Diabrotica balteata": {"tested_on": "Diabrotica balteata", "assay": "Diabrotica balteata spray test", "settings": "Diabrotica balteata, 168 h, application rate 100 g/ha, after 7 days", "description": "[table] To produce a suitable active compound formulation, 1 part by weight of active compound is dissolved using the stated parts by weight of solvent and made up with water containing an emulsifier concentration of 1000 ppm until the desired concentration is attained. To produce further test concentrations, the formulation is diluted with emulsifier-containing water. Pre-swollen wheat grains (Triticum aestivum) are incubated in a multiwell plate filled with agar and a little water for one day (5 seed grains per cavity). The germinated wheat grains are sprayed with an active compound formulation of the desired concentration. Subsequently, each cavity is infected with 10-20 beetle larvae of Diabrotica balteata. After 7 days, the efficacy in % is determined. 100% means that all wheat plants have grown as in the untreated, uninfected control; 0% means that no wheat plant has grown."}, "Meloidogyne incognita": {"tested_on": "Meloidogyne incognita", "assay": "Meloidogyne incognita test", "settings": "application rate 20 ppm, after 14 days", "description": "[table] To produce an appropriate active ingredient formulation, 1 part by weight of active ingredient is mixed with the stated amount of solvent and the concentrate is diluted to the desired concentration with water. Vessels are filled with sand, active ingredient solution, an egg/larvae suspension of the southern root-knot nematode (Meloidogyne incognita) and lettuce seeds. The lettuce seeds germinate and the plants develop. The galls develop on the roots. After 14 days, the nematicidal efficacy in % is determined by the formation of galls. 100% means that no galls were found; 0% means that the number of galls on the treated plants corresponds to the untreated control."}, "Nezara viridula": {"tested_on": "Nezara viridula", "assay": "Nezara viridula spray test", "settings": "Nezara viridula, 96 h, application rate 500 g/ha, after 4 days", "description": "as §1, with “Barley plants (Hordeum vulgare)” for “Discs of Chinese cabbage leaves (Brassica pekinensis) infested by all stages of the green peach aphid (Myzus persicae)”, “concentration and are infected with larvae of the Southern green shield bug (Nezara viridula).” for “concentration.”, “4” for “5”, “all of” for “all”, “shield bugs” for “aphids”, “none of the shield bugs” for “no aphids”"}}}
{"smiles": "CCS(=O)(=O)c1ccc(-n2ncn(C3CC3)c2=O)nc1-c1nc2cc(S(=O)(=O)C(F)(F)F)ccc2o1", "note": "[Example I-03]", "values": [{"measurement": "pest or weed control at 4 ppm", "setting": "Myzus persicae [1]", "result": 100, "unit": "%"}, {"measurement": "activity", "setting": "Myzus persicae [2]", "result": 100, "unit": "%"}, {"measurement": "activity", "setting": "Phaedon cochleariae", "result": 100, "unit": "%"}, {"measurement": "pest or weed control at 100 g/ha", "setting": "Spodoptera frugiperda [3]", "result": 100, "unit": "%"}]}
{"smiles": "CCS(=O)(=O)c1ccc(-n2ncn(-c3ccc(F)cc3)c2=O)nc1-c1nc2cc(S(=O)(=O)C(F)(F)F)ccc2o1", "note": "[Example I-04]", "values": [{"measurement": "pest or weed control at 4 ppm", "setting": "Myzus persicae [1]", "result": 100, "unit": "%"}, {"measurement": "activity", "setting": "Phaedon cochleariae", "result": 100, "unit": "%"}, {"measurement": "pest or weed control at 100 g/ha", "setting": "Spodoptera frugiperda [3]", "result": 100, "unit": "%"}, {"measurement": "Emax at 4 ppm", "setting": "Heliothis armigera", "result": 100, "unit": "%"}, {"measurement": "Emax at 4 ppm", "setting": "Plutella xylostella", "result": 100, "unit": "%"}, {"measurement": "Emax at 0.8 ppm", "setting": "Spodoptera frugiperda [4]", "result": 100, "unit": "%"}]}
{"smiles": "CCS(=O)(=O)c1ccc(-n2ncn(-c3ccc(C4(C#N)CC4)cc3)c2=O)nc1-c1nc2cc(S(=O)(=O)C(F)(F)Cl)ccc2o1", "note": "[Example I-18]", "values": [{"measurement": "pest or weed control at 100 g/ha", "setting": "Diabrotica balteata", "result": 100, "unit": "%"}, {"measurement": "nematicidal efficacy (formation of galls)", "setting": "Meloidogyne incognita", "result": 100, "unit": "%"}]}
{"smiles": "CCS(=O)(=O)c1ccc(-n2ncn(-c3ccc(OC)nc3)c2=O)nc1-c1nc2cc(S(=O)(=O)C(F)(F)F)ccc2o1", "note": "[Example I-43]", "values": [{"measurement": "pest or weed control at 100 g/ha", "setting": "Diabrotica balteata", "result": 80, "unit": "%"}, {"measurement": "nematicidal efficacy (formation of galls)", "setting": "Meloidogyne incognita", "result": 90, "unit": "%"}, {"measurement": "pest or weed control at 500 g/ha", "setting": "Nezara viridula", "result": 90, "unit": "%"}, {"measurement": "pest or weed control at 100 g/ha", "setting": "Spodoptera frugiperda [3]", "result": 83, "unit": "%"}]}
